The NIST ThermoML archive (doi:10.1021/je060203o)
± gives the expanded uncertainty stated by the source.

Conditions: Liquid; for mass density: Vibrating tube method; for speed of sound: Pulse-echo method

CCCCCn1cc[n+](C)c1.O=S(=O)([N-]S(=O)(=O)C(F)(F)F)C(F)(F)F
mass density (313.15 K, 25860 kPa): 1409.15 ± 2.8 kg/m3
mass density (313.15 K, 31480 kPa): 1412.95 ± 3 kg/m3
mass density (313.15 K, 37770 kPa): 1417.13 ± 3.1 kg/m3
mass density (313.15 K, 44170 kPa): 1421.26 ± 3.3 kg/m3
mass density (313.15 K, 50750 kPa): 1425.48 ± 3.5 kg/m3
mass density (313.15 K, 59590 kPa): 1431.06 ± 3.7 kg/m3
mass density (318.15 K, 100 kPa): 1385.75 ± 2.2 kg/m3
speed of sound (318.15 K, 500 kPa): 1187.3 ± 3.1 m/s
mass density (318.15 K, 1830 kPa): 1387.09 ± 2.3 kg/m3
speed of sound (318.15 K, 3500 kPa): 1198.6 ± 3.1 m/s
speed of sound (318.15 K, 7000 kPa): 1211.5 ± 3.1 m/s
speed of sound (318.15 K, 10000 kPa): 1222.4 ± 3.1 m/s
mass density (318.15 K, 10020 kPa): 1393.29 ± 2.5 kg/m3
speed of sound (318.15 K, 13500 kPa): 1234.8 ± 3.1 m/s
mass density (318.15 K, 14980 kPa): 1396.9 ± 2.6 kg/m3
speed of sound (318.15 K, 16990 kPa): 1246.9 ± 3.1 m/s
mass density (318.15 K, 19750 kPa): 1400.31 ± 2.7 kg/m3
speed of sound (318.15 K, 20000 kPa): 1257 ± 3.1 m/s
mass density (318.15 K, 25860 kPa): 1404.59 ± 2.8 kg/m3
speed of sound (318.15 K, 30000 kPa): 1290 ± 3.2 m/s
mass density (318.15 K, 31480 kPa): 1408.43 ± 3 kg/m3
mass density (318.15 K, 37770 kPa): 1412.65 ± 3.1 kg/m3
speed of sound (318.15 K, 40000 kPa): 1321 ± 3.2 m/s
mass density (318.15 K, 44170 kPa): 1416.86 ± 3.3 kg/m3
speed of sound (318.15 K, 50000 kPa): 1350.2 ± 3.2 m/s
mass density (318.15 K, 50750 kPa): 1421.15 ± 3.4 kg/m3
mass density (318.15 K, 59590 kPa): 1426.81 ± 3.6 kg/m3
speed of sound (318.15 K, 60000 kPa): 1378.2 ± 3.2 m/s
speed of sound (318.15 K, 70000 kPa): 1404.9 ± 3.2 m/s
speed of sound (318.15 K, 80000 kPa): 1430.7 ± 3.2 m/s
speed of sound (318.15 K, 90000 kPa): 1455.5 ± 3.2 m/s
speed of sound (318.15 K, 100000 kPa): 1479.5 ± 3.2 m/s
speed of sound (318.15 K, 112500 kPa): 1508 ± 3.2 m/s
speed of sound (318.15 K, 125000 kPa): 1535.9 ± 3.2 m/s
speed of sound (318.15 K, 137510 kPa): 1562.6 ± 3.2 m/s
speed of sound (318.15 K, 150000 kPa): 1587.4 ± 3.2 m/s
mass density (323.15 K, 100 kPa): 1381.45 ± 2.2 kg/m3
mass density (323.15 K, 1830 kPa): 1382.69 ± 2.3 kg/m3
mass density (323.15 K, 10020 kPa): 1388.89 ± 2.4 kg/m3
mass density (323.15 K, 14980 kPa): 1392.55 ± 2.5 kg/m3
mass density (323.15 K, 19750 kPa): 1395.96 ± 2.7 kg/m3
mass density (323.15 K, 25860 kPa): 1400.22 ± 2.8 kg/m3
mass density (323.15 K, 31480 kPa): 1404.06 ± 2.9 kg/m3
mass density (323.15 K, 37770 kPa): 1408.3 ± 3.1 kg/m3
mass density (323.15 K, 44170 kPa): 1412.52 ± 3.2 kg/m3
mass density (323.15 K, 50750 kPa): 1416.77 ± 3.4 kg/m3
mass density (323.15 K, 59590 kPa): 1422.52 ± 3.6 kg/m3
mass density (325.15 K, 100 kPa): 1379.56 ± 2.2 kg/m3
mass density (325.15 K, 1830 kPa): 1380.89 ± 2.2 kg/m3
mass density (325.15 K, 10020 kPa): 1387.23 ± 2.4 kg/m3
mass density (325.15 K, 14980 kPa): 1390.89 ± 2.5 kg/m3
mass density (325.15 K, 19750 kPa): 1394.39 ± 2.6 kg/m3
mass density (325.15 K, 25860 kPa): 1398.72 ± 2.8 kg/m3
mass density (325.15 K, 31480 kPa): 1402.63 ± 2.9 kg/m3
mass density (325.15 K, 37770 kPa): 1406.92 ± 3.1 kg/m3
mass density (325.15 K, 44170 kPa): 1411.19 ± 3.2 kg/m3
mass density (325.15 K, 50750 kPa): 1415.51 ± 3.4 kg/m3
mass density (325.15 K, 59590 kPa): 1421.18 ± 3.6 kg/m3
mass density (327.15 K, 100 kPa): 1377.56 ± 2.2 kg/m3
mass density (327.15 K, 1830 kPa): 1378.86 ± 2.2 kg/m3
mass density (327.15 K, 10020 kPa): 1385.24 ± 2.4 kg/m3
mass density (327.15 K, 14980 kPa): 1388.96 ± 2.5 kg/m3
mass density (327.15 K, 19750 kPa): 1392.45 ± 2.6 kg/m3
mass density (327.15 K, 25860 kPa): 1396.84 ± 2.8 kg/m3
mass density (327.15 K, 31480 kPa): 1400.77 ± 2.9 kg/m3
mass density (327.15 K, 37770 kPa): 1405.12 ± 3.1 kg/m3
mass density (327.15 K, 44170 kPa): 1409.39 ± 3.2 kg/m3
mass density (327.15 K, 50750 kPa): 1413.81 ± 3.4 kg/m3
mass density (327.15 K, 59590 kPa): 1419.56 ± 3.6 kg/m3
speed of sound (328.15 K, 500 kPa): 1165.8 ± 3.1 m/s
speed of sound (328.15 K, 3500 kPa): 1177.4 ± 3.1 m/s
speed of sound (328.15 K, 7000 kPa): 1190.6 ± 3.1 m/s
speed of sound (328.15 K, 10000 kPa): 1201.8 ± 3.1 m/s
speed of sound (328.15 K, 13500 kPa): 1214.2 ± 3.1 m/s
speed of sound (328.15 K, 16990 kPa): 1226.6 ± 3.1 m/s
speed of sound (328.15 K, 20000 kPa): 1236.9 ± 3.1 m/s
speed of sound (328.15 K, 30000 kPa): 1270.5 ± 3.2 m/s
speed of sound (328.15 K, 40000 kPa): 1301.9 ± 3.2 m/s
speed of sound (328.15 K, 50000 kPa): 1331.7 ± 3.2 m/s
speed of sound (328.15 K, 60000 kPa): 1360.1 ± 3.2 m/s
speed of sound (328.15 K, 70000 kPa): 1387.2 ± 3.2 m/s
speed of sound (328.15 K, 80000 kPa): 1413.4 ± 3.2 m/s
speed of sound (328.15 K, 90000 kPa): 1438.4 ± 3.2 m/s
speed of sound (328.15 K, 100000 kPa): 1462.6 ± 3.2 m/s
speed of sound (328.15 K, 112500 kPa): 1491.6 ± 3.2 m/s
speed of sound (328.15 K, 125000 kPa): 1519.6 ± 3.2 m/s
speed of sound (328.15 K, 137510 kPa): 1546.6 ± 3.2 m/s
speed of sound (328.15 K, 150000 kPa): 1571.5 ± 3.2 m/s
mass density (329.15 K, 100 kPa): 1375.46 ± 2.2 kg/m3
mass density (329.15 K, 1830 kPa): 1376.78 ± 2.2 kg/m3
mass density (329.15 K, 10020 kPa): 1383.2 ± 2.4 kg/m3
mass density (329.15 K, 14980 kPa): 1386.93 ± 2.5 kg/m3
mass density (329.15 K, 19750 kPa): 1390.47 ± 2.6 kg/m3
mass density (329.15 K, 25860 kPa): 1394.89 ± 2.8 kg/m3
mass density (329.15 K, 31480 kPa): 1398.85 ± 2.9 kg/m3
mass density (329.15 K, 37770 kPa): 1403.2 ± 3 kg/m3
mass density (329.15 K, 44170 kPa): 1407.56 ± 3.2 kg/m3
mass density (329.15 K, 50750 kPa): 1411.94 ± 3.4 kg/m3
mass density (329.15 K, 59590 kPa): 1417.73 ± 3.6 kg/m3
mass density (331.15 K, 100 kPa): 1373.32 ± 2.2 kg/m3
mass density (331.15 K, 1830 kPa): 1374.64 ± 2.2 kg/m3
mass density (331.15 K, 10020 kPa): 1381.17 ± 2.4 kg/m3
mass density (331.15 K, 14980 kPa): 1384.96 ± 2.5 kg/m3
mass density (331.15 K, 19750 kPa): 1388.53 ± 2.6 kg/m3
mass density (331.15 K, 25860 kPa): 1392.98 ± 2.8 kg/m3
mass density (331.15 K, 31480 kPa): 1396.98 ± 2.9 kg/m3
mass density (331.15 K, 37770 kPa): 1401.34 ± 3 kg/m3
mass density (331.15 K, 44170 kPa): 1405.67 ± 3.2 kg/m3
mass density (331.15 K, 50750 kPa): 1410.08 ± 3.4 kg/m3
mass density (331.15 K, 59590 kPa): 1415.87 ± 3.6 kg/m3
mass density (333.15 K, 100 kPa): 1371 ± 2.2 kg/m3
mass density (333.15 K, 1830 kPa): 1372.46 ± 2.2 kg/m3
mass density (333.15 K, 10020 kPa): 1379.05 ± 2.4 kg/m3
mass density (333.15 K, 14980 kPa): 1382.89 ± 2.5 kg/m3
mass density (333.15 K, 19750 kPa): 1386.48 ± 2.6 kg/m3
mass density (333.15 K, 25860 kPa): 1390.95 ± 2.8 kg/m3
mass density (333.15 K, 31480 kPa): 1395.01 ± 2.9 kg/m3
mass density (333.15 K, 37770 kPa): 1399.42 ± 3 kg/m3
mass density (333.15 K, 44170 kPa): 1403.81 ± 3.2 kg/m3
mass density (333.15 K, 50750 kPa): 1408.2 ± 3.4 kg/m3
mass density (333.15 K, 59590 kPa): 1414.01 ± 3.6 kg/m3
speed of sound (338.15 K, 500 kPa): 1144.8 ± 3.1 m/s
speed of sound (338.15 K, 3500 kPa): 1156.5 ± 3.1 m/s
speed of sound (338.15 K, 7000 kPa): 1170 ± 3.1 m/s
speed of sound (338.15 K, 10000 kPa): 1181.4 ± 3.1 m/s
speed of sound (338.15 K, 13500 kPa): 1194.3 ± 3.1 m/s
speed of sound (338.15 K, 16990 kPa): 1206.7 ± 3.1 m/s
speed of sound (338.15 K, 20000 kPa): 1217.2 ± 3.1 m/s
speed of sound (338.15 K, 30000 kPa): 1251.3 ± 3.2 m/s
speed of sound (338.15 K, 40000 kPa): 1283.3 ± 3.2 m/s
speed of sound (338.15 K, 50000 kPa): 1313.6 ± 3.2 m/s
speed of sound (338.15 K, 60000 kPa): 1342.4 ± 3.2 m/s
speed of sound (338.15 K, 70000 kPa): 1369.8 ± 3.2 m/s
speed of sound (338.15 K, 80000 kPa): 1396.3 ± 3.2 m/s
speed of sound (338.15 K, 90000 kPa): 1421.6 ± 3.2 m/s
speed of sound (338.15 K, 100000 kPa): 1446.3 ± 3.2 m/s
speed of sound (338.15 K, 112500 kPa): 1475.3 ± 3.2 m/s
speed of sound (338.15 K, 125000 kPa): 1503.7 ± 3.2 m/s
speed of sound (338.15 K, 137510 kPa): 1530.9 ± 3.2 m/s
speed of sound (338.15 K, 150000 kPa): 1556.2 ± 3.2 m/s
